Measured values reported in US20230139171A1 (SITA Information Networking Computing UK Limited, priority 2019, published 2023).

How the values were obtained:
Assay type in all cases: cell-based
human TLR9 = target: T1, human TLR9 (Homo sapiens, UniProt Q9NR96); experiment: TLR9 inhibition reporter assay (HEK-Blue cells, SEAP reporter, ODN2006 stimulation); details: HEK-Blue cells overexpressing human TLR9, SEAP reporter, ODN2006 5 nM
T1 construct: host or cells: HEK-Blue cells
T1 sequence (Q9NR96 26-1032): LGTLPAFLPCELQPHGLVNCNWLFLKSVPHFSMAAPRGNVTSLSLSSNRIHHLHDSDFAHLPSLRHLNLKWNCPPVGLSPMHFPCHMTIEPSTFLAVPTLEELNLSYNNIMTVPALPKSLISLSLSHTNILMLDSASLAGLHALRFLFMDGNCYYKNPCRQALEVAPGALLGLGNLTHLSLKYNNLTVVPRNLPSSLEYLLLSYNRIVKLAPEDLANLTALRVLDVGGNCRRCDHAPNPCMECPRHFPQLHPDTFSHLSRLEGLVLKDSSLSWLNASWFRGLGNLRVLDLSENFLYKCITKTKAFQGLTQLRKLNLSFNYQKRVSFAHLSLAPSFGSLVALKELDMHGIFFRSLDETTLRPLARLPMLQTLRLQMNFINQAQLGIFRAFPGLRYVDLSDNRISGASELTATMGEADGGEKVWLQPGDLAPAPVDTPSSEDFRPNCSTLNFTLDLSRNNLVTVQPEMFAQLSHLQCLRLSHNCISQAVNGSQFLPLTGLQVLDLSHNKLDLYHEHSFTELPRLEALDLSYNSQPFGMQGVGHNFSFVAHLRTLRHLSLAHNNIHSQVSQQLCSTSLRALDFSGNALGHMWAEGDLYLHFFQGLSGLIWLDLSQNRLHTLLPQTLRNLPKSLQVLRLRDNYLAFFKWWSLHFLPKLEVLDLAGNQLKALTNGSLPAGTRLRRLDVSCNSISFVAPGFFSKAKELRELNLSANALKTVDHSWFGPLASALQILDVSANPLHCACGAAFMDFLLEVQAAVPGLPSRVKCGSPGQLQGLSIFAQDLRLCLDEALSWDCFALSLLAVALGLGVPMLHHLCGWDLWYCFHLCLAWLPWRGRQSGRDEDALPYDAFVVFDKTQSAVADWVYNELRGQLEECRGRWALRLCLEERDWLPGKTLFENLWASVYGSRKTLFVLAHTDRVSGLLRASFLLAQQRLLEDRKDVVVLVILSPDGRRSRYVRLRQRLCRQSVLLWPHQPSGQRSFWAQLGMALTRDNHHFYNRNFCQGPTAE
Protocol: TLR7/8/9 Inhibition Reporter Assays
HEK-Blue™-cells (Invivogen) overexpressing human TLR7, TLR8 or TLR9 receptors were used for screening inhibitors of these receptors using an inducible SEAP (secreted embryonic alkaline phosphatase) reporter gene under the control of the IFN-β minimal promoter fused to five NF-κB and AP-1-binding sites. Briefly, cells are seeded into Greiner 384 well plates (15000 cells per well for TLR7, 20,000 for TLR8 and 25,000 for TLR9) and then treated with test compounds in DMSO to yield a final dose response concentration range of 0.05 nM-50 μM. After a 30 minute compound pre-treatment at room temperature, the cells are then stimulated with a TLR7 ligand (gardiquimod at a final concentration of 7.5 μM), TLR8 ligand (R848 at a final concentration of 15.9 μM) or TLR9 ligand (ODN2006 at a final concentration of 5 nM) to activate NF-κB and AP-1 which induce the production of SEAP. After a 22 hour incubation at 37° C., 5% CO2, SEAP levels are determined with the addition of HEK-Blue™ Detection reagent (Invivogen), a cell culture medium that allows for detection of SEAP, according to manufacturer's specifications. The percent inhibition is determined as the % reduction in the HEK-Blue signal present in wells treated with agonist plus DMSO alone compared to wells treated with a known inhibitor.

human TLR7 = target: T2, human TLR7 (Homo sapiens, UniProt Q9NYK1); experiment: TLR7 inhibition reporter assay (HEK-Blue cells, SEAP reporter, gardiquimod stimulation); details: HEK-Blue cells overexpressing human TLR7, SEAP reporter, gardiquimod 7.5 μM; read-out: TLR7 IC50
T2 construct: host or cells: HEK-Blue cells
T2 sequence (Q9NYK1 27-1049): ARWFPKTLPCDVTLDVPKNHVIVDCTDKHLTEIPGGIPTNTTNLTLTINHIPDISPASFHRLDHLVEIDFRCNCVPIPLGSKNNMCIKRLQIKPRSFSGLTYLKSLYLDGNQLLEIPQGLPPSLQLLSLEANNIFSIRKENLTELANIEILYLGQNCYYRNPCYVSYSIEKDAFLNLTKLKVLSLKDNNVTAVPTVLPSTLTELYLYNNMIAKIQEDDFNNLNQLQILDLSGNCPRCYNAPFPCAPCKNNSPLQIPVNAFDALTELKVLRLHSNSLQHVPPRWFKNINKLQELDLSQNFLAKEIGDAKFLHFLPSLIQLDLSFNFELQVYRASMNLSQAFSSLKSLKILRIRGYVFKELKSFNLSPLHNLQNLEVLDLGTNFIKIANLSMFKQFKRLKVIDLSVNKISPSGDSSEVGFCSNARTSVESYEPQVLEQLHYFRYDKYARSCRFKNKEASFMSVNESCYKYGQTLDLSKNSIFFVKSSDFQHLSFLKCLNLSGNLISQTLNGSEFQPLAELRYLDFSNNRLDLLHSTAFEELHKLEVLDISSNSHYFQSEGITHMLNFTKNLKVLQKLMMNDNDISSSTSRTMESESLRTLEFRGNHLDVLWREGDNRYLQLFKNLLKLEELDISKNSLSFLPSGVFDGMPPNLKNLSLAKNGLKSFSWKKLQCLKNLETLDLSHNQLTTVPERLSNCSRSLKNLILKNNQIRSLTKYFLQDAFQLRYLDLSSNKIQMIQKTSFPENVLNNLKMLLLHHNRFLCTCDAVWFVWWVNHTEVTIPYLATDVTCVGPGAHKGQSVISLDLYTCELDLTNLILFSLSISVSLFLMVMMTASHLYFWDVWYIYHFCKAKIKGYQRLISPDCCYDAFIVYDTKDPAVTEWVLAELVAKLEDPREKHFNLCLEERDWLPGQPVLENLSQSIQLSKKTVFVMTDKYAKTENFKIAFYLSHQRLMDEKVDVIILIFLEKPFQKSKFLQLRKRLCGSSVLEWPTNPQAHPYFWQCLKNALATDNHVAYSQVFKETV
Summary of the method: (§1)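 Agonists used: gardiquimod 7.5 μM (TLR7), R848 15.9 μM (TLR8), ODN2006 5 nM (TLR9), added after 30 min room-temperature compound pre-treatment (0.05 nM–50 μM) of receptor-overexpressing HEK-Blue cells. SEAP reporter (NF-κB/AP-1 driven) read after 22 h at 37 °C; inhibition scaled between agonist+DMSO and reference-inhibitor wells.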

human TLR8 = target: T3, human TLR8 (Homo sapiens, UniProt Q9NR97); experiment: TLR8 inhibition reporter assay (HEK-Blue cells, SEAP reporter, R848 stimulation); details: HEK-Blue cells overexpressing human TLR8, SEAP reporter, R848 15.9 μM; read-out: TLR8 IC50
T3 construct: host or cells: HEK-Blue cells
T3 sequence (Q9NR97 27-1041): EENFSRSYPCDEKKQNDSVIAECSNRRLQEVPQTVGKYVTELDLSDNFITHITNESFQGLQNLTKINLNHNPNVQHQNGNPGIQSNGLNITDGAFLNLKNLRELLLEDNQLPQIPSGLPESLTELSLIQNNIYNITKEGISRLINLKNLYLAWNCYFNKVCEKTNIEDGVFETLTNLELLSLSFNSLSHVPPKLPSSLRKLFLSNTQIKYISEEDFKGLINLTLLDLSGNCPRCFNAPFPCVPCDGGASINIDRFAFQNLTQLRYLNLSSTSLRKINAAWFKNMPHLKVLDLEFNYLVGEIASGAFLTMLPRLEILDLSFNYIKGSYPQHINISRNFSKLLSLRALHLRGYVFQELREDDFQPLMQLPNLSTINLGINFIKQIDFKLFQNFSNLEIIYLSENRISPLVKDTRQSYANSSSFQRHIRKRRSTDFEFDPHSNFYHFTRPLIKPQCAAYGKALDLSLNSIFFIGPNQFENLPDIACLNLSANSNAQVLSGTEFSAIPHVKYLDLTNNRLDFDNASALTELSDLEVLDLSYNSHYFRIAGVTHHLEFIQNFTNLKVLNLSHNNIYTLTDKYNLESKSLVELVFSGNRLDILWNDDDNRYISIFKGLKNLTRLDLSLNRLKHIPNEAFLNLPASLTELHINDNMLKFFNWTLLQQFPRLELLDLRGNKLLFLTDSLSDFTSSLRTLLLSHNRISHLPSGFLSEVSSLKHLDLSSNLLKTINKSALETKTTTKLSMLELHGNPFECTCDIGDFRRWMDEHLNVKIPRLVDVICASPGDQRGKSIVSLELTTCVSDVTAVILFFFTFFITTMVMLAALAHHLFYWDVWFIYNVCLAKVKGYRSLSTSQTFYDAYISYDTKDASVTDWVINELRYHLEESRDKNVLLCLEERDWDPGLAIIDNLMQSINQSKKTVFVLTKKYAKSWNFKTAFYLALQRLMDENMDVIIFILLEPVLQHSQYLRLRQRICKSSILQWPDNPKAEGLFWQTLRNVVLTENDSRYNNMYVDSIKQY
Summary of the method: as §1

| SMILES | IC50 (human TLR9) [nM] | IC50 (human TLR7) [nM] | IC50 (human TLR8) [nM] |
| --- | --- | --- | --- |
| Cc1c(-c2[nH]c3sc(C4CCC(NC5CCS(=O)(=O)C5)CC4)nc3c2C(C)C)cn2ncnc2c1C (racemic) [Example 230, 3-((4-(5-(7,8-dimethyl-[1,2,4]triazolo[1,5-a]pyridin-6-yl)-6-isopropyl-4H-pyrrolo[3,2-d]thiazol-2-yl)cyclohexyl)amino)tetrahydrothiophene 1,1-dioxide] | 43500 | 4.92 | 1.5 |
| COc1cc(-c2[nH]c3sc(C4CCC(N5CC6(COC6)C5)CC4)nc3c2C(C)C)cn2ncnc12 (single isomer, unassigned) [Example 69, 6-(4-(6-isopropyl-5-(8-methoxy-[1,2,4]triazolo[1,5-a]pyridin-6-yl)-4H-pyrrolo[3,2-d]thiazol-2-yl)cyclohexyl)-2-oxa-6-azaspiro[3.3]heptane] | 6320 | 4.17 | 35.6 |
| COc1cc(-c2[nH]c3sc(C4CCC(NC5(C)COC5)CC4)nc3c2C(C)C)cn2ncnc12 (single isomer, unassigned) [Example 70, N-(4-(6-isopropyl-5-(8-methoxy-[1,2,4]triazolo[1,5-a]pyridin-6-yl)-4H-pyrrolo[3,2-d]thiazol-2-yl)cyclohexyl)-3-methyloxetan-3-amine] | 6610 | 0.58 | 1.46 |
| COCCN1CCN(c2nc3c(C(C)C)c(-c4cc(C)c5ncnn5c4)[nH]c3s2)[C@H](C)C1 [Example 357, (R)-6-isopropyl-2-(4-(2-methoxyethyl)-2-methylpiperazin-1-yl)-5-(8-methyl-[1,2,4]triazolo[1,5-a]pyridin-6-yl)-4H-pyrrolo[3,2-d]thiazole] | 38100 | 1280 |  |
| Cc1cc(-c2[nH]c3sc(N4CCN(CC(C)C)C[C@H]4C)nc3c2C(C)C)cn2ncnc12 [Example 361, (R)-2-(4-isobutyl-2-methylpiperazin-1-yl)-6-isopropyl-5-(8-methyl-[1,2,4]triazolo[1,5-a]pyridin-6-yl)-4H-pyrrolo[3,2-d]thiazole] | 45600 | 719 |  |

The next molecules have a lower IC50 (human TLR9) than those just listed; values first:

| IC50 (human TLR9) [nM] | IC50 (human TLR7) [nM] | IC50 (human TLR8) [nM] | SMILES |
| --- | --- | --- | --- |
| 5810 | 6.92 | 19 | COc1cc(-c2[nH]c3sc(C4CCC(NC5(C)COC5)CC4)nc3c2C(C)C)cn2ncnc12 (single isomer, unassigned) [Example 71, N-(4-(6-isopropyl-5-(8-methoxy-[1,2,4]triazolo[1,5-a]pyridin-6-yl)-4H-pyrrolo[3,2-d]thiazol-2-yl)cyclohexyl)-3-methyloxetan-3-amine] |
| 5710 | 3.59 | 16.9 | COc1cc(-c2[nH]c3sc(C4CCC(NC5COC5)CC4)nc3c2C(C)C)cn2ncnc12 (single isomer, unassigned) [Example 66, N-(4-(6-isopropyl-5-(8-methoxy-[1,2,4]triazolo[1,5-a]pyridin-6-yl)-4H-pyrrolo[3,2-d]thiazol-2-yl)cyclohexyl)oxetan-3-amine] |
| 3500 | 0.81 | 0.58 | COc1cc(-c2[nH]c3sc(C4CCC(N5CC6(COC6)C5)CC4)nc3c2C(C)C)cn2ncnc12 (single isomer, unassigned) [Example 68, 6-(4-(6-isopropyl-5-(8-methoxy-[1,2,4]triazolo[1,5-a]pyridin-6-yl)-4H-pyrrolo[3,2-d]thiazol-2-yl)cyclohexyl)-2-oxa-6-azaspiro[3.3]heptane] |
| 2250 | 12.6 | 12.9 | COc1cc(-c2[nH]c3sc(C4CCC(N5CC(CO)(CO)C5)CC4)nc3c2C(C)C)cn2ncnc12 (single isomer, unassigned) [Example 67, (1-(4-(6-isopropyl-5-(8-methoxy-[1,2,4]triazolo[1,5-a]pyridin-6-yl)-4H-pyrrolo[3,2-d]thiazol-2-yl)cyclohexyl)azetidine-3,3-diyl)dimethanol] |
